According to PubChem BioAssay AID602296 (Broad Institute, 2012):
Records with an inconclusive call do not appear. The source made the active and inactive calls.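 How the source made its calls: active means fitted activation curve crossing 40% at a concentration no higher than the sample's top valid tested dose; inconclusive means flat fitted curve at 30% to 70% activation, or poor curve fit; inactive means signal decrease, flat curve within 30%, or the rest.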

System: NIH3T3-HGL HSF-1 response element luciferase, 48 h
Experiment: HSF-1 reporter activators over prolonged exposure, confirmation, cell-based, mouse, luciferase, cherry-pick, dose (AID 602296);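 further: test compounds applied by themselves with no MG132 co-treatment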

SMILES	AC40
CC1(C)CC(=O)C(C=Nc2cccnc2)=C(O)C1	> 26 µM (inactive)
Cc1cc(-c2nc3ncccc3o2)ccc1NC(=S)NC(=O)C(C)C	7.32 µM
COc1ccc(/C=C(\NC(=O)c2ccccc2)C(=O)N/N=C/c2sccc2C)cc1	> 26 µM (inactive)
c1ccc(CCc2ccncc2)cc1	> 26 µM (inactive)
CCCSc1nnc2n(-c3ccccc3OC)c(=O)c3c4c(sc3n12)CCC4	> 26 µM (inactive)
Cc1ccc(CSc2nc3ccccc3c(=O)n2CCCC(=O)NCc2ccco2)cc1	> 26 µM (inactive)
O=C(NCCN1CCN(C(=O)c2ccc(Br)cc2)CC1)c1ccc(Br)cc1	> 26 µM (inactive)
Clc1ncnc2scc(C3COc4ccccc4O3)c12 (stereo not drawn)	17.7 µM
O=C(Nc1ccccc1C(=O)OCC(=O)c1c[nH]c2ccccc12)c1ccco1	> 26 µM (inactive)
Cc1cc(-c2ccc(C(C)C)c(S(=O)(=O)NCCN3CCC(C)CC3)c2)on1	> 26 µM (inactive)
CCCNC(=O)NC(=O)CSc1cccc(C(F)(F)F)c1	13.5 µM
Cc1ccc(=O)n(C(C(=O)NCc2ccco2)C(=O)c2ccc(F)cc2)c1 (stereo not drawn)	> 26 µM (inactive)
CC(C)C(=O)N1CCC(n2nccc2NC(=O)CCOc2ccccc2)CC1	7.78 µM
Cc1cc(C)cc(OCC(O)CN2C(=O)NC(C)(C)C2=O)c1 (stereo not drawn)	> 26 µM (inactive)
Cn1cc(C(=O)N/N=C/c2cc(Br)cs2)c2ccccc21	11.3 µM
COC(=O)c1ccc(C(=O)OC)c(NC(=O)C(C)(C)C)c1	> 26 µM (inactive)
CCC(Sc1nc2cc3c(cc2c(=O)n1Cc1ccco1)OCO3)C(=O)NCCOC (stereo not drawn)	> 26 µM (inactive)
COc1ccccc1CN1CC(C(=O)NCCc2ncccc2C)CCC1=O (stereo not drawn)	24.8 µM
CC(C)(C)NC(=O)c1cccc(NC(=O)CSc2ccc(Cl)cc2)c1	> 26 µM (inactive)
CCOc1ccc(-n2cc(C(=O)N3CCC(C)CC3)c3cc(OC)c(OC)cc3c2=O)cc1	25 µM
COc1cc(CNCC(O)c2ccccc2)ccc1OCc1ccc(Cl)nc1 (stereo not drawn)	> 26 µM (inactive)
CCOC(=O)C1CCN(C(=O)c2ccc3c(Cl)c4c(nc3c2)CCCC4)CC1	> 26 µM (inactive)
O=Nc1c(-c2ccccc2)[nH]n(-c2ccccc2)c1=O	20.7 µM
Cc1csc2nc(CCNS(=O)(=O)c3cccs3)cn12	2.76 µM

SMILES	AC40
Cc1ccc(C(=O)NNC(=O)c2ccccc2-n2cccc2)cc1	> 26 µM (inactive)
Cc1ccc(-n2cc(CNCCN3CCOC3=O)c(-c3cccc(C)c3)n2)cc1	17.4 µM
Cc1ccc(NC2=NC3(CCCC3)N=C(N)N2)c(C)c1	> 26 µM (inactive)
CC(=O)Nc1ccc(N/C=C/C(=O)C(C)(C)C)cc1	> 26 µM (inactive)
COc1ccc(C2C(C(C)=O)=C(O)C(=O)N2c2ccc(C)cc2)cc1 (stereo not drawn)	> 26 µM (inactive)
Cc1ccccc1NC(=O)C1CCCN(C(=O)NCc2ccccc2)C1 (stereo not drawn)	> 26 µM (inactive)
Cc1ncc([N+](=O)[O-])n1CCOC(=O)c1cc(Cl)cc(Cl)c1N	> 26 µM (inactive)
CCc1cccc(NC(=O)c2cccc(S(=O)(=O)N3CCN(C)CC3)c2)c1	> 26 µM (inactive)
O=C1CCCN2N=C(SCC(=O)Nc3ccc(Br)cc3)SC2=N1	> 26 µM (inactive)
CCn1c(SCC(=O)c2ccc(Cl)cc2)nnc1-c1ccoc1C	11.1 µM
COC(=O)CC/C(O)=C1/C(=N)CC(C)(C)CC1=O	> 12 µM (inactive)
CC(C)(C)NC(=O)NC(=O)CN1CC=C(c2ccccc2)CC1	> 26 µM (inactive)
Cc1ccc(SCCCCN2CCOCC2)cc1	23.9 µM
CCSc1nnc(NC(=O)c2cccnc2Cl)s1	6.92 µM
CCN(CC)CCCNC(=O)CSc1c2c(nc3cc(Cl)ccc13)CCCC2	22 µM
CC(C)(C)c1cc(NC(=O)CCSc2nnc3ccccn23)cc(C(C)(C)C)c1	> 26 µM (inactive)
NC(=O)c1nn(-c2ccccc2)nc1NC(=O)CN1CCCCC1	> 26 µM (inactive)
CCOc1ccccc1-c1noc(CCCC(=O)NC2CCCCC2)n1	> 26 µM (inactive)
Cc1ccc(S(=O)(=O)CCN2CCN(c3ccccc3)CC2)cc1	> 26 µM (inactive)
O=C(NCc1ccco1)C1CC(O)CN1C(=O)Nc1ccccc1 (stereo not drawn)	> 26 µM (inactive)
O=C(CSc1cccc2cccnc12)N/N=C/c1cccnc1	> 26 µM (inactive)
COc1ccc(C2(C)NC(=O)N(CC3CCCCC3)C2=O)cc1 (stereo not drawn)	> 26 µM (inactive)
COC(=O)c1cc(OC)c(OC)cc1NC(=S)NC(=O)c1ccco1	> 26 µM (inactive)
CCCC(=O)Nc1cc(-c2nn(C)c(=O)c3ccccc23)ccc1OC	> 26 µM (inactive)
